We go through 34 molecules from patent US8304539B2, “Fused heteroaryl modulators of glucocorticoid receptor, AP-1, and/or NF-κB activity and use thereof” (Bristol-Myers Squibb Company, priority 2008, dated 2012).

The target in the experiment is T1, human full-length glucocorticoid receptor (Homo sapiens, UniProt P04150).
T1 construct: recombinantly expressed human full-length glucocorticoid receptor; purchased PanVera Co., Madison, Wis; P2816
T1 sequence (P04150 1-777): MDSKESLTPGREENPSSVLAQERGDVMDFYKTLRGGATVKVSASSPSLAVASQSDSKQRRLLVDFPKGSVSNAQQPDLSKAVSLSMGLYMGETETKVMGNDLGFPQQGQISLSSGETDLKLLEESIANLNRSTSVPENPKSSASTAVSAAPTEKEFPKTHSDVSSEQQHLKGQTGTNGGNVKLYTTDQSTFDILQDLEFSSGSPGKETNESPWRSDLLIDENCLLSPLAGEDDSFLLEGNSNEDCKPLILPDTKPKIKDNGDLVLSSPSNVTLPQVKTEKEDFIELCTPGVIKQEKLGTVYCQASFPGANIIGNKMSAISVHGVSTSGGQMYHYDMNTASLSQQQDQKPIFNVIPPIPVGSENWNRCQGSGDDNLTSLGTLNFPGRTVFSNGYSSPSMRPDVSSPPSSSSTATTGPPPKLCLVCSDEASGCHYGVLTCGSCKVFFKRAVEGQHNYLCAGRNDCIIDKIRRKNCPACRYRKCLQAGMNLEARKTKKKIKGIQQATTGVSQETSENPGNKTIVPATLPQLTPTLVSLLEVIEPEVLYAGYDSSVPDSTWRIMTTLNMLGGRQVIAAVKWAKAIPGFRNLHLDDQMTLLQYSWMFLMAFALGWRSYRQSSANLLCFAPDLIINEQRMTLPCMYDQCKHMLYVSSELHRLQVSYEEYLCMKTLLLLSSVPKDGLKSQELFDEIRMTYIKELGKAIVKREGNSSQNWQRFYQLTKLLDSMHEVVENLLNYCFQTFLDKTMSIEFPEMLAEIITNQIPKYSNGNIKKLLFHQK
The experiment in a line: GR binding Assay II (fluorescence polarization competitor assay). The note with it: given where AP-1 EC50 is greater than 1 uM and/or maximal inhibition is less than 20%; read-out: GR (Ki, nM) (measured in GR binding Assay II). As for the experimental part: Glucocorticoid Receptor Binding Assay (II)
In order to measure the binding of compounds on the glucocorticoid receptor a commercially available kit was used (Glucocorticoid receptor competitor assay kit, PanVera Co., Madison, Wis., P2816). Briefly, a cell lysate containing recombinantly expressed human full-length glucocorticoid receptor was mixed with a fluorescently labeled glucocorticoid (1 nM Fluormone GS1) in the presence or absence of test compound. After one hour at room temperature, the fluorescence polarization (FP) of the samples were measured. The FP of a mixture of receptor, fluorescent probe (i.e. Fluormone GS1) and 1 mM dexamethasone represented background fluorescence or 100% inhibition, whereas, the FP of the mixture without dexamethasone was taken to be 100% binding. The percentage inhibition of test molecules were then compared to the sample with 1 mM dexamethasone and expressed as % relative binding activity with dexamethasone being 100% and no inhibition is 0%. Test molecules were analyzed in the concentration range from 2.4 nM to 40 microMolar.
A general note: Fluorescence polarisation rises when a labelled molecule tumbles more slowly, as on binding a larger partner.
The term Ki denotes a dissociation constant, usually derived from enzyme kinetics or from competition with a known ligand. Regarding `CC(C)(C(=O)Nc1nncs1)C1c2ccncc2Oc2nc(-c3ccc(C(=O)N4CCOCC4)cc3)ccc21` (stereo not shown) [Example 2, 2-methyl-2-(2-(4-(4-morpholinylcarbonyl)phenyl)-5H-pyrido[4′,3′:5,6]pyrano[2,3-b]pyridin-5-yl)-N-1,3,4-thiadiazol-2-ylpropanamide], the Ki was found to be 199 nM.

As to `CC(C)(C(=O)Nc1nnc(C(=O)NC2CC2)s1)C1c2cccnc2Oc2nc(-c3ccc(C(=O)N4CCOCC4)cc3)ccc21` (stereo not shown) [Example 6], the Ki is 59 nM. Take `CCN(C)C(=O)c1ccc(-c2ccc3c(n2)Oc2ncccc2C3C(C)(C)C(=O)Nc2nnc(C(=O)NC3CC3)s2)cc1` (stereo not shown) [Example 7]: the Ki stood at 65.6 nM. `Cc1ccc2c(n1)Oc1nc(Cl)ccc1C2C(C)(C)C(=O)Nc1nncs1` (stereo not shown) [Example 19]: the Ki was 269 nM. With `Cc1ccc2c(n1)Oc1nc(-c3ccc(Oc4ccccc4)cc3)ccc1[C@H]2C(C)(C)C(=O)Nc1nncs1` [Example 23], the Ki worked out at 4.59 nM. As to `Cc1ccc2c(n1)Oc1nc(-c3ccc(OC(F)(F)F)cc3)ccc1[C@H]2C(C)(C)C(=O)Nc1nncs1` [Example 24], the Ki was determined as 2.66 nM. For `Cc1ccc2c(n1)Oc1nc(-c3ccc(S(=O)(=O)N(C)C)cc3)ccc1[C@H]2C(C)(C)C(=O)Nc1nncs1` [Example 25], the Ki was found to be 172 nM. With `Cc1ccc2c(n1)Oc1nc(-c3ccc(C(=O)NC(C)(C)C)cc3)ccc1[C@H]2C(C)(C)C(=O)Nc1nncs1` [Example 26] the figure was 591 nM; with `Cc1ccc2c(n1)Oc1nc(-c3ccc(C(=O)N4CCCC4)c(F)c3)ccc1[C@H]2C(C)(C)C(=O)Nc1nncs1` [Example 28], 14.2 nM; with `CSc1ccc(-c2ccc3c(n2)Oc2nc(C)ccc2[C@@H]3C(C)(C)C(=O)Nc2nncs2)cc1` [Example 29], 18.9 nM. As to `Cc1ccc2c(n1)Oc1nc(-c3ccc(S(C)(=O)=O)cc3)ccc1[C@H]2C(C)(C)C(=O)Nc1nncs1` [Example 37, 2-methyl-2-((5S)-2-methyl-8-(4-(methylsulfonyl)phenyl)-5H-pyrido[3′,2′:5,6]pyrano[2,3-b]pyridin-5-yl)-N-1,3,4-thiadiazol-2-ylpropanamide], the Ki is 78.9 nM. On to `Cc1ccc2c(n1)Oc1nc(-c3ccc(C(=O)N4CCC(F)(F)C4)c(F)c3)ccc1[C@H]2C(C)(C)C(=O)Nc1nncs1` [Example 39], for which the Ki came to 38.2 nM. Take `Cc1ccc2c(n1)Oc1nc(-c3ccc(C(=O)N(C)C)cc3)ccc1[C@H]2C(C)(C)C(=O)Nc1nnc(C(=O)NC2CC2)s1` [Example 43]: the Ki was determined as 11.6 nM. Take `CNC(=O)c1nnc(NC(=O)C(C)(C)[C@H]2c3ccc(C)nc3Oc3nc(-c4ccc(C(=O)N(C)C)cc4)ccc32)s1` [Example 45]: the Ki was 134 nM.

Turning to `CCN(C)C(=O)c1ccc(-c2ccc3c(n2)Oc2nc(C)ccc2[C@@H]3C(C)(C)C(=O)Nc2nnc(C(=O)N(C)C)s2)cc1` [Example 47], the Ki amounted to 149 nM. For `CNC(=O)c1cnc(NC(=O)C(C)(C)[C@H]2c3ccc(C)nc3Oc3nc(-c4ccc(C(=O)N(C)C)cc4)ccc32)s1` [Example 51], the Ki was found to be 423 nM.

Regarding `Cc1ccc2c(n1)Oc1nc(-c3ccc(C(=O)N(C)C)cc3)ccc1[C@H]2C(C)(C)C(=O)Nc1ncc(C(=O)N2CCOCC2)s1` [Example 52], the Ki turned out to be 411 nM. With `Cc1ccc2c(n1)Oc1nc(-c3ccc(C(=O)N(C)C)cc3)ccc1[C@H]2C(C)(C)C(=O)Nc1ncc(C(=O)NC2CC2)s1` [Example 53] the figure was 106 nM. Turning to `C=Cc1ccc2c(n1)Oc1nc(-c3ccc(C(=O)N(C)C)cc3)ccc1C2C(C)(C)C(=O)Nc1nncs1` (stereo not shown) [Example 64, 4-(5-(1,1-dimethyl-2-oxo-2-(1,3,4-thiadiazol-2-ylamino)ethyl)-8-vinyl-5H-pyrido[3′,2′:5,6]pyrano[2,3-b]pyridin-2-yl)-N,N-dimethylbenzamide], the inhibition constant Ki was determined as 80.8 nM.

Take `CN(C)C(=O)c1ccc(-c2ccc3c(n2)Oc2nc(-c4ccccc4)ccc2C3C(C)(C)C(=O)Nc2nncs2)cc1` (stereo not shown) [Example 65, 4-(5-(1,1-dimethyl-2-oxo-2-(1,3,4-thiadiazol-2-ylamino)ethyl)-8-phenyl-5H-pyrido[3′,2′:5,6]pyrano[2,3-b]pyridin-2-yl)-N,N-dimethylbenzamide]: the Ki is 657 nM. With `CN(C)C(=O)c1ccc(-c2ccc3c(n2)Oc2nc(N4CCOCC4)ccc2C3C(C)(C)C(=O)Nc2nncs2)cc1` (stereo not shown) [Example 69, 4-(5-(1,1-dimethyl-2-oxo-2-(1,3,4-thiadiazol-2-ylamino)ethyl)-8-(4-morpholinyl)-5H-pyrido[3′,2′:5,6]pyrano[2,3-b]pyridin-2-yl)-N,N-dimethylbenzamide], the inhibition constant Ki was found to be 68.9 nM. Turning to `CN(C)C(=O)c1ccc(-c2ccc3c(n2)Oc2nc(N4CCCC4)ccc2C3C(C)(C)C(=O)Nc2nncs2)cc1` (stereo not shown) [Example 70, 4-(5-(1,1-dimethyl-2-oxo-2-(1,3,4-thiadiazol-2-ylamino)ethyl)-8-(1-pyrrolidinyl)-5H-pyrido[3′,2′:5,6]pyrano[2,3-b]pyridin-2-yl)-N,N-dimethylbenzamide], the Ki amounted to 385 nM.

On to `Cc1ccc2c(n1)Oc1nc(-c3ccc(OC(C)C)nc3)ccc1[C@H]2C(C)(C)C(=O)Nc1nncs1` [Example 74], for which the Ki was determined as 27.6 nM.

As to `Cc1ccc2c(n1)Oc1nc(-c3ccc(OC4CCCC4)cc3)ccc1[C@H]2C(C)(C)C(=O)Nc1nncs1` [Example 75], the inhibitory constant (Ki) came to 13.5 nM. For the molecule `Cc1ccc2c(n1)Oc1nc(-c3ccc(CC(C)C)cc3)ccc1[C@H]2C(C)(C)C(=O)Nc1nncs1` [Example 77], the Ki came out at 2.53 nM. Regarding `CCSc1ccc(-c2ccc3c(n2)Oc2nc(C)ccc2[C@@H]3C(C)(C)C(=O)Nc2nncs2)cc1` [Example 78], the Ki was 2.15 nM. In the case of `Cc1ccc2c(n1)Oc1nc(-c3ccc(OC(C)(C)C)cc3)ccc1[C@H]2C(C)(C)C(=O)Nc1nncs1` [Example 79], the inhibition constant (Ki) turned out to be 40.5 nM. As to `Cc1ccc2c(n1)Oc1nc(-c3ccc(CN4CCCC4)cc3)ccc1[C@H]2C(C)(C)C(=O)Nc1nncs1` [Example 80], the Ki is 1150 nM. Regarding `Cc1ccc2c(n1)Oc1nc(-c3ccc(S(=O)(=O)C(C)C)cc3)ccc1[C@H]2C(C)(C)C(=O)Nc1nncs1` [Example 83], the Ki turned out to be 25.2 nM. For `CCN(C)C(=O)c1ccc(-c2ccc3c(n2)Oc2c(ccc[n+]2[O-])C3C(C)(C)C(=O)Nc2nncs2)cc1` (stereo not shown) [Example 84, 4-(5-(1,1-dimethyl-2-oxo-2-(1,3,4-thiadiazol-2-ylamino)ethyl)-9-oxido-5H-pyrido[3′,2′:5,6]pyrano[2,3-b]pyridin-2-yl)-N-ethyl-N-methylbenzamide], the Ki stood at 1150 nM.

As to `CCN(C)C(=O)c1ccc(-c2ccc3c(n2)Oc2nc(C)ccc2[C@@H]3C(C)(C)C(=O)Nc2nnc(C(=O)NCCO)s2)cc1` [Example 85], the Ki was 67.2 nM. In the case of `Cc1ccc2c(n1)Oc1nc(-c3ccc(C(=O)N4CCC[C@@H]4C(N)=O)cc3)ccc1[C@H]2C(C)(C)C(=O)Nc1nncs1` [Example 90] it was 103 nM. For the molecule `Cc1ccc2c(n1)Oc1nc(-c3ccc(C(=O)N4CCC[C@@H]4C(N)=O)cc3)ccc1[C@H]2C(C)(C)C(=O)Nc1nnc(C)s1` [Example 91], the Ki was 122 nM. Consider `Cc1ccc2c(n1)Oc1nc(-c3ccc(C(=O)N4CCOCC4)cc3)ccc1[C@H]2C(C)(C)C(=O)Nc1nnn(C)n1` [Example 92, 2-methyl-2-((5S)-2-methyl-8-(4-(4-morpholinylcarbonyl)phenyl)-5H-pyrido[3′,2′:5,6]pyrano[2,3-b]pyridin-5-yl)-N-(2-methyl-2H-tetrazol-5-yl)propanamide], for which the Ki turned out to be 153 nM.
